Data from paper PMC8333062, “Chemical tools for epichaperome-mediated interactome dysfunctions of the central nervous system” (Nature Communications, 2021).
Several values for one entry are separate records, joined by “and”; a condition that tells them apart may be missing. Equal entries are not always repeated.

Columns and labels:
[1] = PET biodistribution in human patients; format: in vivo; conditions: mean n=3
Text: To evaluate the brain permeability of PU-HZ151 into the human brain, we produced the [^124I]-labeled derivative and performed serial PET imaging studies of human patients (n = 3; NCT03371420), and derived time-activity (i.e. standard uptake values (SUV) versus time post-administration) curves for the brain and various other tissues (Fig. 2b). PET data obtained for [^124I]-labeled PU-H71 (NCT01269593 and ref. [39]) were used for comparison. […] The AUC values recorded for [^124I]-PU-HZ151 in the human brain post-single injection are at par with what was measured in the human muscle and lung, supportive of uptake of PU-HZ151 into the human brain (Fig. 2b). Magnetic resonance imaging (MRI), by offering structural and soft tissue resolution, confirmed the presence of PU-HZ151 in the brain tissue (Fig. 2d). […] The secondary outcome of the trial was to measure adverse events following administration of the probe. Safety of [^124I]-PU-HZ151 in human subjects was assessed by evaluation of the incidence, nature, and severity of adverse events and serious adverse events (Supplementary Note 2).
[^124I]-PU-HZ151 and [^124I]-PU-H71 were synthesized in-house by the institutional cyclotron core facility at high specific activity. Analyses of the epichaperome by positron emission tomography (PET-CT) were performed as previously reported. In brief, research PET-CT was performed using an integrated PET-CT scanner (Discovery DSTE, GE Healthcare). CT scans for attenuation correction and anatomic coregistration were performed before tracer injection. Patients received 5 mCi of [^124I]-PU-HZ151 or [^124I]-PU-H71 by peripheral vein over 2 min. PET data were reconstructed using a standard ordered subset expected maximization iterative algorithm. Emission data were corrected for scatter, attenuation, and decay. PET scans were performed 0.5, 3, and 24 h after tracer administration. Numbers in the scale bar indicate upper and lower standardized uptake value (SUV) thresholds that define pixel intensity on PET images. SUV is a pixel value, derived from PET measurements of in vivo radioactivity, quantified as the fraction of the radioactive dose injected found in a cubic centimeter of measured tissue multiplied (ie, normalized) by patient body weight (grams). Maximum Intensity Projection (MIP) 3D images were constructed from the voxels with maximum intensity that fell in the way of parallel rays traced from the viewpoint to the plane of projection. At each pixel the highest data value encountered along the corresponding viewing ray was determined. MRI scans were obtained as part of routine clinical care using hardware and standard data acquisition and processing methods. MRI was obtained using a 1.5T magnet (Signa HDxt, GE Healthcare, Milwaukee, WI). […] Gadopentetate dimeglumine (Magnevist, HealthCare Pharmaceuticals Inc.) was injected though a peripheral angiocatheter at a standard dose (0.2 mL kg^−1 body weight, 40 mL, 2 cc s^−1). For precise localization of tracer uptake to specific neuroanatomical structures, PET brain images were fused to MRI brain images using the Integrated Registration application of the AW Suite software package (GE Healthcare, Milwaukee, Wisconsin, USA).

HepG2 cells (Pgp +ve) = assay: Cell viability, ATP levels 72 h; format: cell-based, human; conditions: for Cell viability (ATP levels): HEPG2
Method: Supplementary Fig. 15: PU-HZ151 activity in cells is unaffected by Pgp overexpression. a Two Pgp-positive cells lines, Kasumi-1 and HepG2, were tested for epichaperome-positivity. β-Actin, loading control. b ATP levels in cell treated for 72 h with 0 to 1 µM PU-HZ151. Data are presented as means ±s.e.m. of three experimental repeats. Control, vehicle (DMSO) treated cells. c Western blot analysis of aberrant signaling pathway inhibition by […]
(also on this page, place not known: MDA‐MB-468ASPC1Kasumi Hep G2 ATP levels %Control MDA‐MB-468ASPC1Kasumi 1Hep G2 β-Actin HSP90α Native-PAGE SDS PAGE 100- β-Actin 1)

CC(C)(C)CNCCn1c(Sc2cc3c(cc2I)OCO3)nc2c(N)ncnc21 [Compound 85]
SUV average, Brain ([1]; 0.5 h): 1.12 SUV
SUV average, Lung ([1]; 0.5 h): 0.59 SUV
SUV average, Muscle ([1]; 0.5 h): 0.87 SUV
SUV average, Brain ([1]; 3 h): 0.49 SUV
SUV average, Lung ([1]; 3 h): 0.34 SUV
SUV average, Muscle ([1]; 3 h): 0.37 SUV
SUV average, Brain ([1]; 24 h): 0.04 SUV
SUV average, Lung ([1]; 24 h): 0.1 SUV
SUV average, Muscle ([1]; 24 h): 0.1 SUV
activity in Pgp-overexpressing vs Pgp-low cells (HepG2 cells (Pgp +ve)): comparable activity
Cell viability (ATP levels) (HepG2 cells (Pgp +ve); 1.95312 nM, replicates, listed as PU-HZ151, 0.00195312 µM): 87.8706 and 102.165
Cell viability (ATP levels) (HepG2 cells (Pgp +ve); 3.90625 nM, replicates, listed as PU-HZ151, 0.00390625 µM): 90.4471 and 81.5412
Cell viability (ATP levels) (HepG2 cells (Pgp +ve); 7.8125 nM, replicates, listed as PU-HZ151, 0.0078125 µM): 90.4471 and 73.8824
Cell viability (ATP levels) (HepG2 cells (Pgp +ve); 15.625 nM, replicates, listed as PU-HZ151, 0.015625 µM): 83.4588 and 82.6941
Cell viability (ATP levels) (HepG2 cells (Pgp +ve); 31.25 nM, replicates, listed as PU-HZ151, 0.03125 µM): 65.6706 and 60.9647
Cell viability (ATP levels) (HepG2 cells (Pgp +ve); 62.5 nM, replicates, listed as PU-HZ151, 0.0625 µM): 37.2471 and 23.6471
Cell viability (ATP levels) (HepG2 cells (Pgp +ve); 125 nM, replicates, listed as PU-HZ151, 0.125 µM): 13.5294 and 11.2118
Cell viability (ATP levels) (HepG2 cells (Pgp +ve); 500 nM, replicates, listed as PU-HZ151, 0.5 µM): 2.612 and 2.282
Cell viability (ATP levels) (HepG2 cells (Pgp +ve); 1000 nM, replicates, listed as PU-HZ151, 1 µM): 1.824
viability at 0.00195312 µM (HepG2 cells (Pgp +ve); Homo sapiens, HepG2, HEPG2, 1.95312 nM, replicates): 99.4%
viability at 0.00390625 µM (HepG2 cells (Pgp +ve); Homo sapiens, HepG2, HEPG2, 3.90625 nM, replicates): 81.2%
viability at 0.0078125 µM (HepG2 cells (Pgp +ve); Homo sapiens, HepG2, HEPG2, 7.8125 nM, replicates): 79.7%
viability at 0.015625 µM (HepG2 cells (Pgp +ve); Homo sapiens, HepG2, HEPG2, 15.625 nM, replicates): 72.1%
viability at 0.03125 µM (HepG2 cells (Pgp +ve); Homo sapiens, HepG2, HEPG2, 31.25 nM, replicates): 70.3%
viability at 0.0625 µM (HepG2 cells (Pgp +ve); Homo sapiens, HepG2, HEPG2, 62.5 nM, replicates): 27.4%
viability at 0.125 µM (HepG2 cells (Pgp +ve); Homo sapiens, HepG2, HEPG2, 125 nM, replicates): 16.9%
viability at […] (HepG2 cells (Pgp +ve); Homo sapiens, HepG2, HEPG2, 250 nM, replicates): 2.72%
viability at 0.5 µM (HepG2 cells (Pgp +ve); Homo sapiens, HepG2, HEPG2, 500 nM, replicates): 1.86%
viability at 1 µM (HepG2 cells (Pgp +ve); Homo sapiens, HepG2, HEPG2, 1000 nM, replicates): 1.85%
